Assay [1] relates to ZR75/AGP-763 human mammary cell line (CAT induction). The experiment in a line: Antiglucocorticoid effect: inhibition of dexamethasone-induced CAT in ZR75/AGP-763 cells. Format: cell-based. The note with it: ZR 75/AGP-763; 10^-7 M dexamethasone; wide range of concentrations. The text has this:
FIG. 2. is a graph showing the antiglucocorticoid effect of J 867 (Example 1) in comparison to RU 486. The graph depicts the inhibition of CAT induction in a human mammary cell line (the ZR75/AGP-763 cell line) which were induced by 10^-7 M dexamethasone. The graph indicates the log molar antagonist concentration in the x-axis versus the maximum CAT induction as a percentage in the y-axis. The results for dexamethasone is shown as dashed lines (- - -), the IC50 is shown in solid line (----), RU 486 is shown as open boxes (.quadrature.), and J 867 is shown with closed boxes (.box-solid.).
FIG. 2 depicts the antiglucocorticoid effect produced by J 867 in the ZR 75/AGP-763 line of human mammary cells compared with that of RU 486.
In this cell line, dexamthasone induces the chloroamphenicol acetyl transferase gene (CAT). This induction is inhibited by antiglucocorticoid substances.
Antiglucocorticoid effect of J867 in the ZR75/AGP-763 line of human mammary cells
The cell culture experiments were carried out in RPMI 1640 added with 10% foetal calf serum (FCS) using an incubator cabinet containing 95% air and 5% CO2 at 37° C. The cells were spread in 60 mm Petri dishes. […] CAT was determined using a Boehringer ELISA according to the instructions for quantitative CAT determination of transfected cells.

Another assay has as its target T1, oestrogen receptor (Oryctolagus cuniculus, UniProt G1SML6).
T1 construct: uterine cytosol of the immature rabbit; from tissue; host or cells: uterus (cytosol) of immature rabbit
T1 sequence (G1SML6 1-598): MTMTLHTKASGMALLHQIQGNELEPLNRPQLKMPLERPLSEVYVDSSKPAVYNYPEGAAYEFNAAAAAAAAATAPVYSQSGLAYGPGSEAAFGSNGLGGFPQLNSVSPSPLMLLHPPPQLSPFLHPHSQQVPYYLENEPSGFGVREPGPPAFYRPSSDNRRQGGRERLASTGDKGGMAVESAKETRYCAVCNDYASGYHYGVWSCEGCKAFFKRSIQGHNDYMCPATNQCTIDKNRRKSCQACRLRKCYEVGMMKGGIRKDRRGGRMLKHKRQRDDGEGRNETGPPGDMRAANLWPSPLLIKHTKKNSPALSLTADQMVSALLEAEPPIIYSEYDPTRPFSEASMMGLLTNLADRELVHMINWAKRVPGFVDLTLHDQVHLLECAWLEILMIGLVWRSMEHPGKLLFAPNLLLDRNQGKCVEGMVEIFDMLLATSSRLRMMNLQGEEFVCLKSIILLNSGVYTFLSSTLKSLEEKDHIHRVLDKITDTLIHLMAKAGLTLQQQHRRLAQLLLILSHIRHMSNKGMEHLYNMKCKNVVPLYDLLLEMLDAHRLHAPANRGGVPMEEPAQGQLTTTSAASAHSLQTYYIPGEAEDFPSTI
In words: relative molar bonding affinity to oestrogen receptor (competitive bonding). Type of assay: binding. The note with it: estradiol = 100%; uterine cytosol of immature rabbit; 3H-ethinyl estradiol, 3 nM; 18 h, 0-4° C. As for the experimental part: Measurement of bonding affinity for receptors
Receptor bonding affinity was determined by competitive bonding of a specifically binding ^3 H labelled hormone (tracer) and the compound to be tested to receptors in the cytosol from animal target organs. It was tried to obtain receptor saturation and a balanced reaction. The following incubation conditions were selected:
Oestrogen receptor: uterine cytosol of the immature rabbit, kept at -30° C. in TED buffer with 250 mM of saccharose. Tracer: ^3 H-ethinyl estradiol, 3 nM; reference substance: 17β-estradiol.
After an incubation period of 18 hours at 0°-4° C., bonded and free steroid was separated by mixing in active carbon/dextrane (1%/0.1%), centrifuging off and measuring the bonded ^3 H activity in the supernatant.
The IC50 for the compound to be tested and for the reference substance were determined from measurements in series of concentrations. The quotient of both values (×100%) is the relative molar bonding affinity.

For assay [2], the system named is uterine weight in cyclic guinea pigs. The experiment in a line: Influence on uterine weight in cyclic guinea pigs. Type of assay: in vivo, guinea pig. From the text:
FIG. 1. is a chart showing a comparison of the influence on uterine weight in cyclic guineau pigs when treated with the antigestagen agents RU 486, a control (the vehicle), and a compound of the present invention, J 867 (as prepared in accordance with Example 1).
FIG. 1 compares the influence of antigestagen treatment of cyclic guinea pigs on uterine weights for J 867 and RU 486.
Treatment of female guinea pigs with antigestagen
Treatment of adult female guinea pigs from day 10 to day 18 of the cycle (autopsy). Administration of the specified doses using subcutaneous osmotic pumps (Type 2 ML1 ALZET). Vehicle: […] propylene glycol/24 hrs.

The results in this text go back to US5693628A, “11-benzaldoxime-estra-diene derivatives, methods for their production and pharmaceuticals containing these compounds” (priority 1994, dated 1997).

Structures are written as SMILES.

In the case of `COC[C@]1(OC)CC[C@H]2[C@@H]3CCC4=CC(=O)CCC4=C3[C@@H](c3ccc(C=NO)cc3)C[C@@]21C` [Example 1, 11β-[4-(hydroximinomethyl)phenyl]-17β-methoxy-17α-methoxymethyl-estra-4,9-diene-3-on], the “inhibition of CAT compared with RU 486” value in assay [1] was “inhibits CAT over a wide range of concentrations to a lesser extent than RU 486”. On oestrogen receptor, the “relative molar bonding affinity (RBA) to oestrogen rec.” value is less than 0.1%. Also, in assay [2] (1, 3, and 6 mg/24 hrs, s.c. osmotic pump, day 10 to 18 of cycle), the “inhibition of uterine weights of cyclic guinea pigs, all doses” value was “inhibited uterine weights to a statistically significant extent”. Also, in assay [2] (doses at which RU 486 increases uterine weights, compared with control animals), the “uterine weights in the anovulatorial cycle in guinea pigs” value is on record as “significantly reduced uterine weights”.
